Experimental data taken from patent US5120842A, “Silyl ethers of rapamycin” (American Home Products Corporation, priority 1991, dated 1992).
Values after ≈ are worked out from the molar mass of the structure shown. Like-named read-outs stand apart in the source and are kept apart here.

Assays:
[1] = tested on: cells from the thymus of normal BALB/c mice (lymphocyte proliferation); assay: comitogen-induced thymocyte proliferation procedure (LAF); assay type: cell-based; settings: Mus musculus
Procedure: Immunosuppressive activity was evaluated in an in vitro standard pharmacological test procedure to measure lymphocyte proliferation (LAF).
Briefly, cells from the thymus of normal BALB/c mice are cultured for 72 hours with PHA and IL-1 and pulsed with tritiated thymidine during the last six hours. Cells are cultured with and without various concentrations of rapamycin, cyclosporin A, or test compound. Cells are harvested and incorporated radioactivity is determined. Inhibition of lymphoproliferation is assessed as percent change in counts per minute from non-drug treated controls. The results are expressed as an IC50.

Candida albicans 3669 = assay: antifungal plate test procedure; assay type: cell-based; settings: strain 3669, plate disk test, read-out: MIC to inhibit growth
Procedure: (§1) Antifungal activity of a representative compound of this invention was measured against 5 strains of Candida albicans using a plate test procedure for measurement of inhibition. The following represents the typical procedure used. Compound to be tested was placed on sterile dried 1/4" plate disks, and allowed to dry. Agar plates were seeded with fungi and allowed to solidify. The impregnated disks were placed on the seeded Agar surface and incubated for the time required for the particular culture.

[2] = tested on: Candida albicans ATCC 38246; assay: antifungal plate test procedure; assay type: cell-based; settings: ATCC38246, strain ATCC 38246, plate disk test, read-out: MIC to inhibit growth
Procedure: as §1

[3] = tested on: Candida albicans ATCC 38248; assay: antifungal plate test procedure; assay type: cell-based; settings: ATCC38248, strain ATCC 38248, plate disk test, read-out: MIC to inhibit growth
Procedure: as §1

[4] = tested on: Candida albicans ATCC 10231; assay: antifungal plate test procedure; assay type: cell-based; settings: ATCC10231, strain ATCC 10231, plate disk test, read-out: MIC to inhibit growth
Procedure: as §1

[5] = tested on: Candida albicans ATCC 38247; assay: antifungal plate test procedure; assay type: cell-based; settings: ATCC38247, strain ATCC 38247, plate disk test, read-out: MIC to inhibit growth
Procedure: as §1

[6] = cited from earlier work
[7] = model for multiple sclerosis; cited from earlier work
IgE-like antibodies = settings: in vivo; cited from earlier work
[8] = model for rheumatoid arthritis; cited from earlier work
Candida albicans = settings: in vitro and in vivo; cited from earlier work
[9] = read-out: IC50 (LAF), 72 h culture with PHA and IL-1, tritiated thymidine last six hours, table 1

Row | SMILES | IC50 [1, 9] [nM] | MIC (Candida albicans 3669) [µg/mL] | MIC [2] [µg/mL] | MIC [3] [µg/mL] | MIC [4] [µg/mL] | MIC [5] [µg/mL] | IC50 ([1]; rapamycin-31-acetate and rapamycin evaluated contemporaneously, read-out: IC50 (LAF)) [nM] | antitumor activity ([6]; in combination with picibanil) | antitumor activity ([6]; rapamycin alone) | effect in experimental allergic encephalomyelitis model [7] | inhibition of formation of IgE-like antibodies (IgE-like antibodies) | effect in adjuvant arthritis model [8] | antifungal activity (Candida albicans) | IC50 ([1]; read-out: IC50 (LAF), rapamycin-31-acetate and rapamycin evaluated contemporaneously) [nM]
1 | CO[C@H]1C[C@@H]2CC[C@@H](C)[C@@](O)(O2)C(=O)C(=O)N2CCCC[C@H]2C(=O)O[C@H]([C@H](C)C[C@@H]2CC[C@@H](O[Si](C)(C)C(C)(C)C)[C@H](OC)C2)CC(=O)[C@H](C)/C=C(\C)[C@@H](O)[C@@H](OC)C(=O)[C@H](C)C[C@H](C)/C=C/C=C/C=C/1C [Example 1, Rapamycin 42-O-[(1,1-Dimethylethyl)dimethylsilyl]ether] | 45.8 | > 0.4 | > 0.4 | > 0.4 | 0.2 (≈ 0.194 µM) | 0.2 (≈ 0.194 µM) |  |  |  |  |  |  |  | 
2 | CO[C@H]1C[C@@H]2CC[C@@H](C)[C@@](O)(O2)C(=O)C(=O)N2CCCC[C@H]2C(=O)O[C@H]([C@H](C)C[C@@H]2CC[C@@H](O)[C@H](OC)C2)CC(=O)[C@H](C)/C=C(\C)[C@@H](OC(C)=O)[C@@H](OC)C(=O)[C@H](C)C[C@H](C)/C=C/C=C/C=C/1C [rapamycin-31-acetate, Rapamycin 31-acetate] |  |  |  |  |  |  | 56.5 |  |  |  |  |  |  | 
3 | CO[C@H]1C[C@@H]2CC[C@@H](C)[C@@](O)(O2)C(=O)C(=O)N2CCCC[C@H]2C(=O)O[C@H]([C@H](C)C[C@@H]2CC[C@@H](O)[C@H](OC)C2)CC(=O)[C@H](C)/C=C(\C)[C@@H](O)[C@@H](OC)C(=O)[C@H](C)C[C@H](C)/C=C/C=C/C=C/1C [Rapamycin] | 3.2 | 0.025 (≈ 0.0273 µM) | 0.025 (≈ 0.0273 µM) | 0.006 (≈ 0.00656 µM) | 0.003 (≈ 0.00328 µM) | 0.003 (≈ 0.00328 µM) |  | shown to have antitumor activity | shown to have antitumor activity | effective | effectively inhibited the formation of IgE-like antibodies | effective | antifungal activity, particularly against Candida albicans, both in vitro and in vivo | 7.8
